Some test systems named below: SK-MEL-5 melanoma; SW-620 colon; IGROV1 ovarian; HT29 colon; NCI-H23 lung; K-562 leukemia; SK-MEL-2 melanoma; A549 NSCLC; CAKI-1 renal; HOP-92 NSCLC.
Holding throughout (test): inhibition of tumour cell growth, NCI panel, 48 h

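Briefly, cells in 96-well plates were exposed to five compound concentrations for 48 h, and endpoints were estimated by linear interpolation. At the GI50, growth is halved. TGI denotes the concentration required for complete inhibition of growth.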 Where only a bound is given, the exact number is not on record here.

As to `COC(=O)[C@@H](C)C[C@H](Cc1ccccc1)NC(=O)c1nc([C@@H](C[C@H](C(C)C)N(C)C(=O)[C@@H](NC(=O)[C@H]2C[C@H](O)CCN2C)C(C)C)OC(C)=O)sc1C(C)C`, the GI50 in the assay with SK-MEL-5 melanoma is 3.69 nM; with SW-620 colon, 5.33 nM; with IGROV1 ovarian, 3.24 nM; in the assay on HT29 colon, 3.77 nM; in the assay on NCI-H23 lung, 23.2 nM; in the assay on K-562 leukemia, 2.67 nM. The GI50 is 3.18 nM in the assay on SK-MEL-2 melanoma, 51.9 nM in the assay on A549 NSCLC, 115 nM in the assay with CAKI-1 renal and 4.91 nM in the assay with HOP-92 NSCLC. Moreover, the TGI in the assay with SK-MEL-5 melanoma was 185 nM; in the assay with SW-620 colon it was > 11100 nM; in the assay with IGROV1 ovarian, > 11100 nM; in the assay with HT29 colon, > 3990 nM; with NCI-H23 lung, > 11100 nM; in the assay with K-562 leukemia, > 11100 nM. The TGI is > 11100 nM in the assay with SK-MEL-2 melanoma, > 11100 nM in the assay with A549 NSCLC, > 9690 nM in the assay with CAKI-1 renal and 7050 nM with HOP-92 NSCLC.
Take `COC(=O)c1c2c(c(C)[n+]([O-])c1C)C(=O)C(NCc1ccc(OC)cc1)=CC2=O`: the GI50 was 1130 nM in the assay on SK-MEL-5 melanoma; 1950 nM in the assay with SW-620 colon; 1500 nM with IGROV1 ovarian; 2150 nM in the assay on HT29 colon; 1810 nM with NCI-H23 lung; 2670 nM with K-562 leukemia. The GI50 in the assay with SK-MEL-2 melanoma is 2230 nM; with A549 NSCLC, 2900 nM; in the assay on CAKI-1 renal, 2900 nM; with HOP-92 NSCLC, 2640 nM. Moreover, the TGI in the assay with SK-MEL-5 melanoma is 2390 nM; in the assay with SW-620 colon, 4260 nM; in the assay on IGROV1 ovarian, 3450 nM; in the assay on HT29 colon, > 100000 nM; in the assay on NCI-H23 lung, 4260 nM; with K-562 leukemia it was > 100000 nM. The TGI worked out at 5880 nM with SK-MEL-2 melanoma, 10200 nM in the assay with A549 NSCLC, 11200 nM in the assay with CAKI-1 renal and 5910 nM in the assay on HOP-92 NSCLC.
Turning to `C=CC1(C)CCC2C(=CCC3C2(C)CC(O)C(O)C3(C)COC2OC(CO)C(O)C(O)C2O)C1` (stereo not drawn), the TGI in the assay with SK-MEL-5 melanoma, with SW-620 colon, in the assay with IGROV1 ovarian, with HT29 colon, in the assay with NCI-H23 lung and in the assay with K-562 leukemia was > 100000 nM each time. Moreover, the TGI in the assay with SK-MEL-2 melanoma, with A549 NSCLC, with CAKI-1 renal and with HOP-92 NSCLC was > 100000 nM each time.
Regarding `N#CC(C(=O)CCCC(=O)Nc1ccccc1[N+](=O)[O-])c1c(Cl)cccc1Cl` (stereo not drawn), the TGI in the assay on SK-MEL-5 melanoma, in the assay with SW-620 colon, in the assay on IGROV1 ovarian, in the assay on HT29 colon, in the assay on NCI-H23 lung and with K-562 leukemia was > 100000 nM throughout. Further, the TGI in the assay on SK-MEL-2 melanoma, in the assay on A549 NSCLC, with CAKI-1 renal and in the assay with HOP-92 NSCLC was > 100000 nM in each case.
Regarding `Cn1cc(-c2ccc3nc(-c4ccc(CC(=O)Nc5cc(C(C)(C)C)no5)cc4)cnc3c2)cn1`, the TGI was > 3000 nM in the assay with SK-MEL-5 melanoma; > 3000 nM in the assay with SW-620 colon; > 1210 nM with IGROV1 ovarian; > 3000 nM with HT29 colon; > 3000 nM in the assay on NCI-H23 lung; > 3000 nM with K-562 leukemia. Besides, the TGI with SK-MEL-2 melanoma was 581 nM; in the assay on A549 NSCLC, > 3000 nM; in the assay with CAKI-1 renal, > 3000 nM; in the assay on HOP-92 NSCLC, > 3000 nM. Moreover, the GI50 in the assay with SW-620 colon was 47.7 nM; with IGROV1 ovarian, 13 nM; in the assay with HT29 colon, 85.9 nM; in the assay on NCI-H23 lung, 895 nM; in the assay with K-562 leukemia, 17 nM; in the assay with SK-MEL-2 melanoma it was 23.7 nM. Besides, the figures for the GI50 in the assay with A549 NSCLC, in the assay with CAKI-1 renal and in the assay with HOP-92 NSCLC were 57.7 nM, 10.2 nM and 49.5 nM, respectively.
`CC1(C)N=C(N)N=C(N)N1c1ccc(OCCCNC(=O)Nc2ccc(S(=O)(=O)F)cc2)c(Cl)c1`: the GI50 in the assay with SK-MEL-5 melanoma was 146 nM; in the assay with SW-620 colon it was 77.8 nM; with IGROV1 ovarian it was 281 nM; in the assay with HT29 colon, 100 nM; in the assay on NCI-H23 lung, 488 nM; in the assay with K-562 leukemia it was 49.7 nM. Also, the GI50 is 790 nM with SK-MEL-2 melanoma, 73.2 nM with A549 NSCLC, 17900 nM with CAKI-1 renal and 2740 nM in the assay with HOP-92 NSCLC. The TGI was 13300 nM with SK-MEL-5 melanoma; > 100000 nM in the assay with SW-620 colon; > 100000 nM with IGROV1 ovarian; > 100000 nM in the assay on HT29 colon; > 100000 nM in the assay with NCI-H23 lung; > 100000 nM with K-562 leukemia. Besides, the TGI in the assay on SK-MEL-2 melanoma is > 100000 nM; in the assay on A549 NSCLC it was > 100000 nM; in the assay on CAKI-1 renal it was > 95000 nM; in the assay on HOP-92 NSCLC it was 61900 nM.
On to `Cn1ncnc1[C@@H]1c2n[nH]c(=O)c3cc(F)cc(c23)N[C@H]1c1ccc(F)cc1`, for which the GI50 in the assay with SK-MEL-5 melanoma, in the assay with SW-620 colon, with IGROV1 ovarian, with HT29 colon, with NCI-H23 lung and in the assay on K-562 leukemia was > 100000 nM throughout. In addition, the GI50 in the assay on SK-MEL-2 melanoma is > 100000 nM; in the assay with A549 NSCLC, > 100000 nM; in the assay with CAKI-1 renal, 91500 nM; with HOP-92 NSCLC it was 92600 nM. Also, the TGI with SK-MEL-5 melanoma, in the assay on SW-620 colon, in the assay with IGROV1 ovarian, with HT29 colon, in the assay with NCI-H23 lung and in the assay on K-562 leukemia was > 100000 nM each time. The TGI in the assay on SK-MEL-2 melanoma, with A549 NSCLC, with CAKI-1 renal and in the assay on HOP-92 NSCLC was > 100000 nM each time.
For the compound `Nc1c(C(=O)Nc2cccc(Cl)c2)sc2nc3c(cc12)C(=O)CCC3`, the GI50 with SK-MEL-5 melanoma is 141 nM; in the assay with SW-620 colon it was 351 nM; in the assay with IGROV1 ovarian, 2280 nM; with HT29 colon, 338 nM; in the assay on NCI-H23 lung it was 751 nM; in the assay on K-562 leukemia, 101 nM. The values for the GI50 with SK-MEL-2 melanoma, in the assay on A549 NSCLC and in the assay on CAKI-1 renal were 488 nM, 420 nM and 438 nM, respectively. Moreover, the TGI with SK-MEL-5 melanoma, in the assay with SW-620 colon, with IGROV1 ovarian, with HT29 colon, in the assay with NCI-H23 lung and with K-562 leukemia was > 100000 nM throughout. Besides, the TGI in the assay on SK-MEL-2 melanoma, in the assay with A549 NSCLC, in the assay on CAKI-1 renal and with HOP-92 NSCLC was > 100000 nM throughout.

Source of the values: PubChem BioAssay (NCI).
